# Experimental data taken from paper PMC5218480 (PLoS ONE, 2017).
# Tested on: MV-4-11 cells
# Assay: Gene expression microarray analysis (Affymetrix PrimeView) and GSEA
# Type: cell-based, human
# Design: RFU PODN (11730768_x_at) / Fold change /veh PODN (11730768_x_at) / RFU LINC00158 (11744669_a_at) / Fold change /veh LINC00158 (11744669_a_at) / RFU DUSP10 (11751237_a_at) / Fold change /veh DUSP10 (11751237_a_at) / RFU ID3 (11757404_x_at) / Fold change /veh ID3 (11757404_x_at) / RFU PLEKHG5 (11737974_s_at) / Fold change /veh PLEKHG5 (11737974_s_at) / RFU LRRC4B (11730491_at) / Fold change /veh LRRC4B (11730491_at) / RFU GIMAP4 (11747438_a_at) / Fold change /veh GIMAP4 (11747438_a_at) / RFU KRT8 (11758183_x_at) / Fold change /veh KRT8 (11758183_x_at) / RFU CNN1 (11734310_a_at) / Fold change /veh CNN1 (11734310_a_at) / RFU VPS37D (11726825_at) / Fold change /veh VPS37D (11726825_at) / RFU C10orf10 (11716522_x_at) / Fold change /veh C10orf10 (11716522_x_at) / RFU KIR2DL2 /// KIR2DL4 /// KIR2DL5A /// KIR2DL5B /// KIR2DS1 /// KIR2DS2 /// KIR2DS3 /// KIR2DS4 /// KIR3DL3 /// KIR3DL3 /// KIR3DS1 (11738374_at) / Fold change /veh KIR2DL2 /// KIR2DL4 /// KIR2DL5A /// KIR2DL5B /// KIR2DS1 /// KIR2DS2 /// KIR2DS3 /// KIR2DS4 /// KIR3DL3 /// KIR3DL3 /// KIR3DS1 (11738374_at) / RFU C1QL1 (11718748_at) / Fold change /veh C1QL1 (11718748_at) / RFU TMPRSS4 (11747572_a_at) / Fold change /veh TMPRSS4 (11747572_a_at) / RFU HAMP (11756126_x_at) / Fold change /veh HAMP (11756126_x_at) / RFU RNFT2 (11725882_a_at) / Fold change /veh RNFT2 (11725882_a_at) / RFU NR4A2 (11747474_a_at) / Fold change /veh NR4A2 (11747474_a_at) / RFU ABCC12 (11746883_a_at) / Fold change /veh ABCC12 (11746883_a_at) / RFU TMEM136 (11760407_x_at) / Fold change /veh TMEM136 (11760407_x_at) / RFU CLDN22 /// WWC2 (11732394_at) / Fold change /veh CLDN22 /// WWC2 (11732394_at) / RFU HLA-DPB1 (11760878_x_at) / Fold change /veh HLA-DPB1 (11760878_x_at) / RFU SPINT1 (11716480_a_at) / Fold change /veh SPINT1 (11716480_a_at) / RFU GAP43 (11754022_s_at) / Fold change /veh GAP43 (11754022_s_at) / RFU A4GNT (11735810_at) / Fold change /veh A4GNT (11735810_at) / RFU PRB3 (11715151_x_at) / Fold change /veh PRB3 (11715151_x_at) / RFU TUBB4B (11761932_at) / Fold change /veh TUBB4B (11761932_at) / RFU CAPN14 (11732068_a_at) / Fold change /veh CAPN14 (11732068_a_at) / RFU TMCC2 (11721928_a_at) / Fold change /veh TMCC2 (11721928_a_at) / RFU IRGQ (11745062_a_at) / Fold change /veh IRGQ (11745062_a_at) / RFU FAM174B (11720279_a_at) / Fold change /veh FAM174B (11720279_a_at) / RFU TMPRSS4 (11748680_a_at) / Fold change /veh TMPRSS4 (11748680_a_at) / RFU FAM212B (11763350_a_at) / Fold change /veh FAM212B (11763350_a_at) / RFU PLEKHG5 (11743358_a_at) / Fold change /veh PLEKHG5 (11743358_a_at) / RFU ZSCAN30 (11745921_a_at) / Fold change /veh ZSCAN30 (11745921_a_at) / RFU CMKLR1 (11741424_a_at) / Fold change /veh CMKLR1 (11741424_a_at) / RFU LOC101060620 /// MAPK8IP1 (11723275_at) / Fold change /veh LOC101060620 /// MAPK8IP1 (11723275_at) / RFU SPTSSB (11747773_x_at) / Fold change /veh SPTSSB (11747773_x_at) / RFU PRSS12 (11739890_at) / Fold change /veh PRSS12 (11739890_at) / RFU BIN1 (11741810_x_at) / Fold change /veh BIN1 (11741810_x_at) / RFU WNT11 (11732464_a_at) / Fold change /veh WNT11 (11732464_a_at) / RFU C10orf10 (11716521_a_at) / Fold change /veh C10orf10 (11716521_a_at) / RFU C5orf56 (11738089_at) / Fold change /veh C5orf56 (11738089_at) / RFU CYB561 (11721691_x_at) / Fold change /veh CYB561 (11721691_x_at) / RFU ANKRD19P (11752326_a_at) / Fold change /veh ANKRD19P (11752326_a_at) / RFU OR2T12 /// OR2T33 /// OR2T8 (11738714_s_at) / Fold change /veh OR2T12 /// OR2T33 /// OR2T8 (11738714_s_at) / RFU VCAN (11748164_a_at) / Fold change /veh VCAN (11748164_a_at) / RFU JSRP1 (11732532_at) / Fold change /veh JSRP1 (11732532_at) / RFU KRTAP10-11 (11738290_x_at) / Fold change /veh KRTAP10-11 (11738290_x_at) / RFU MYO3A (11730013_a_at) / Fold change /veh MYO3A (11730013_a_at) / RFU EBF3 (11725865_a_at) / Fold change /veh EBF3 (11725865_a_at) / RFU CAMK2N1 (11719241_x_at) / Fold change /veh CAMK2N1 (11719241_x_at) / RFU C5orf56 (11738088_a_at) / Fold change /veh C5orf56 (11738088_a_at) / RFU OLFML3 (11715873_a_at) / Fold change /veh OLFML3 (11715873_a_at) / RFU LOC100653217 /// NTM (11731650_a_at) / Fold change /veh LOC100653217 /// NTM (11731650_a_at) / RFU MAPK11 (11762145_a_at) / Fold change /veh MAPK11 (11762145_a_at) / RFU FIZ1 (11724087_x_at) / Fold change /veh FIZ1 (11724087_x_at) / RFU OASL (11726364_x_at) / Fold change /veh OASL (11726364_x_at) / RFU SOX15 (11748057_x_at) / Fold change /veh SOX15 (11748057_x_at) / RFU CD79A (11719716_a_at) / Fold change /veh CD79A (11719716_a_at) / RFU HIST1H1D (11736915_at) / Fold change /veh HIST1H1D (11736915_at) / RFU CASKIN2 (11723855_a_at) / Fold change /veh CASKIN2 (11723855_a_at) / RFU LOC730098 (11760151_x_at) / Fold change /veh LOC730098 (11760151_x_at) / RFU OR4N2 (11742367_at) / Fold change /veh OR4N2 (11742367_at) / RFU PRRT2 (11749266_a_at) / Fold change /veh PRRT2 (11749266_a_at) / RFU SNX32 (11753110_a_at) / Fold change /veh SNX32 (11753110_a_at) / RFU CDHR5 (11726645_a_at) / Fold change /veh CDHR5 (11726645_a_at) / RFU RCAN1 (11760418_a_at) / Fold change /veh RCAN1 (11760418_a_at) / RFU FAM167A (11723789_a_at) / Fold change /veh FAM167A (11723789_a_at) / RFU FAM26E (11764081_at) / Fold change /veh FAM26E (11764081_at) / RFU ISYNA1 (11749810_s_at) / Fold change /veh ISYNA1 (11749810_s_at) / RFU ACY1 (11761880_at) / Fold change /veh ACY1 (11761880_at) / RFU 11764098_at / Fold change /veh 11764098_at / RFU SAMD14 (11745864_x_at) / Fold change /veh SAMD14 (11745864_x_at) / RFU NPB (11741838_a_at) / Fold change /veh NPB (11741838_a_at) / RFU TMPRSS6 (11731388_a_at) / Fold change /veh TMPRSS6 (11731388_a_at) / RFU KRTAP10-2 (11738614_at) / Fold change /veh KRTAP10-2 (11738614_at) / RFU ARHGAP8 /// PRR5-ARHGAP8 (11727945_x_at) / Fold change /veh ARHGAP8 /// PRR5-ARHGAP8 (11727945_x_at) / RFU KRTAP5-7 /// NADSYN1 (11734609_at) / Fold change /veh KRTAP5-7 /// NADSYN1 (11734609_at) / RFU RASL12 (11751679_a_at) / Fold change /veh RASL12 (11751679_a_at) / RFU CDKN2B (11736163_a_at) / Fold change /veh CDKN2B (11736163_a_at) / RFU PRF1 (11729649_at) / Fold change /veh PRF1 (11729649_at) / RFU, ZNF638 /// ZNF638-IT1 / Fold change vs veh, ZNF638 /// ZNF638-IT1 / RFU, PANK3 / Fold change vs veh, PANK3 / RFU, SH3YL1 / Fold change vs veh, SH3YL1 / RFU, ZEB2 / Fold change vs veh, ZEB2 / RFU, NRIP1 / Fold change vs veh, NRIP1 / RFU, PTTG1IP / Fold change vs veh, PTTG1IP / RFU, CAPN2 / Fold change vs veh, CAPN2 / RFU, MED14 / Fold change vs veh, MED14 / RFU, SNORA58 / Fold change vs veh, SNORA58 / RFU, C1orf63 / Fold change vs veh, C1orf63 / RFU, LRRFIP1 / Fold change vs veh, LRRFIP1 / RFU, NDUFAF7 / Fold change vs veh, NDUFAF7 / RFU, SLC12A2 / Fold change vs veh, SLC12A2 / RFU, IBTK / Fold change vs veh, IBTK / RFU, ESF1 / Fold change vs veh, ESF1 / Fold change vs veh, TMEM50B / RFU, TAOK1 / Fold change vs veh, TAOK1 / RFU, ACBD3 / Fold change vs veh, ACBD3 / RFU, TMA16 / Fold change vs veh, TMA16 / RFU, RWDD3 / Fold change vs veh, RWDD3 / RFU, BCAT1 / Fold change vs veh, BCAT1 / RFU, EDEM3 / Fold change vs veh, EDEM3 / RFU, TMEM33 / Fold change vs veh, TMEM33 / RFU, WDR75 / Fold change vs veh, WDR75 / RFU, AHCTF1 / Fold change vs veh, AHCTF1 / RFU, TFRC / Fold change vs veh, TFRC / RFU, ZDHHC17 / Fold change vs veh, ZDHHC17 / RFU, NOM1 / Fold change vs veh, NOM1 / RFU, ARL8B / Fold change vs veh, ARL8B / RFU, ZBTB11 / Fold change vs veh, ZBTB11 / RFU, TAMM41 / Fold change vs veh, TAMM41 / RFU, KIAA1704 /// LOC100996395 / Fold change vs veh, KIAA1704 /// LOC100996395 / RFU, ING1 / Fold change vs veh, ING1 / RFU, TRMT61B / Fold change vs veh, TRMT61B / RFU, FUBP3 / Fold change vs veh, FUBP3 / RFU, TP53 / Fold change vs veh, TP53 / RFU, TNKS2 / Fold change vs veh, TNKS2 / RFU, ZFP14 / Fold change vs veh, ZFP14 / RFU, ACTR2 / Fold change vs veh, ACTR2 / RFU, PPP3R1 / Fold change vs veh, PPP3R1 / RFU, PIK3R1 / Fold change vs veh, PIK3R1 / RFU, HNRNPA1 / Fold change vs veh, HNRNPA1 / RFU, RNF170 / Fold change vs veh, RNF170 / RFU, ZNF28 / Fold change vs veh, ZNF28 / RFU, RNGTT / Fold change vs veh, RNGTT / RFU, OGT / Fold change vs veh, OGT / RFU, BRD1 / Fold change vs veh, BRD1 / RFU, MARS / Fold change vs veh, MARS / RFU, ZNF655 / Fold change vs veh, ZNF655 / RFU, FAHD1 / Fold change vs veh, FAHD1 / RFU, BDP1 / Fold change vs veh, BDP1 / RFU, LRRCC1 / Fold change vs veh, LRRCC1 / RFU, ARID1A / Fold change vs veh, ARID1A / RFU, ZNF146 / Fold change vs veh, ZNF146 / RFU, ZNF330 / Fold change vs veh, ZNF330 / RFU, GPN3 / Fold change vs veh, GPN3 / RFU, C9orf123 / Fold change vs veh, C9orf123 / RFU, N4BP2L2 / Fold change vs veh, N4BP2L2 / RFU, ARFIP1 / Fold change vs veh, ARFIP1 / RFU, FAM179B / Fold change vs veh, FAM179B / RFU, BCL10 / Fold change vs veh, BCL10 / RFU, UHRF1BP1L / Fold change vs veh, UHRF1BP1L / RFU, BET1 / Fold change vs veh, BET1 / RFU, CNOT2 / Fold change vs veh, CNOT2 / RFU, ZNF268 / Fold change vs veh, ZNF268 / Fold change vs veh, ZNF507 / RFU, DGCR2 / Fold change vs veh, DGCR2 / RFU, WDSUB1 / Fold change vs veh, WDSUB1 / Fold change vs veh, HSP90B1 /// MIR3652 / RFU, ADSS / Fold change vs veh, ADSS / RFU, GK / Fold change vs veh, GK / RFU, ZNF148 / Fold change vs veh, ZNF148 / RFU, TAF9 / Fold change vs veh, TAF9 / RFU, SLC1A5 / Fold change vs veh, SLC1A5 / RFU, SLMO2 / Fold change vs veh, SLMO2 / RFU, ABCC4 / Fold change vs veh, ABCC4 / RFU, LOC101060439 /// RAP1B / Fold change vs veh, LOC101060439 /// RAP1B / RFU, RFX7 / Fold change vs veh, RFX7 / RFU, GTPBP10 / Fold change vs veh, GTPBP10 / RFU, CNEP1R1 / Fold change vs veh, CNEP1R1 / RFU, BIVM-ERCC5 /// ERCC5 / Fold change vs veh, BIVM-ERCC5 /// ERCC5 / RFU, ILF3 / Fold change vs veh, ILF3 / RFU 11762660_at / Fold change /veh 11762660_at / RFU VCAN (11757783_s_at) / Fold change /veh VCAN (11757783_s_at) / RFU DDX43 (11728927_at) / Fold change /veh DDX43 (11728927_at) / RFU KRT8 (11758188_x_at) / Fold change /veh KRT8 (11758188_x_at) / RFU NKD1 (11759106_at) / Fold change /veh NKD1 (11759106_at) / RFU SRD5A1 (11742802_a_at) / Fold change /veh SRD5A1 (11742802_a_at) / RFU TPSAB1 /// TPSB2 (11721975_s_at) / Fold change /veh TPSAB1 /// TPSB2 (11721975_s_at) / RFU GSTM3 (11746129_a_at) / Fold change /veh GSTM3 (11746129_a_at) / RFU IL23R (11737362_x_at) / Fold change /veh IL23R (11737362_x_at) / RFU TMEM51 (11727254_a_at) / Fold change /veh TMEM51 (11727254_a_at) / RFU PIWIL2 (11732686_x_at) / Fold change /veh PIWIL2 (11732686_x_at) / RFU ORM1 (11744905_x_at) / Fold change /veh ORM1 (11744905_x_at) / RFU CCDC152 (11743942_at) / Fold change /veh CCDC152 (11743942_at) / RFU ECM1 (11717891_a_at) / Fold change /veh ECM1 (11717891_a_at) / RFU IL23R (11748794_a_at) / Fold change /veh IL23R (11748794_a_at) / RFU TNFAIP8L3 (11732012_x_at) / Fold change /veh TNFAIP8L3 (11732012_x_at) / RFU MBOAT4 (11741988_at) / Fold change /veh MBOAT4 (11741988_at) / RFU 11764193_at / Fold change /veh 11764193_at / RFU TMEM53 (11763286_at) / Fold change /veh TMEM53 (11763286_at) / RFU MAGEB2 (11727129_at) / Fold change /veh MAGEB2 (11727129_at) / RFU TMEM200A (11744735_a_at) / Fold change /veh TMEM200A (11744735_a_at) / RFU CCDC152 (11751479_a_at) / Fold change /veh CCDC152 (11751479_a_at) / RFU FAM211A (11726209_a_at) / Fold change /veh FAM211A (11726209_a_at) / RFU RGS16 (11746705_a_at) / Fold change /veh RGS16 (11746705_a_at) / RFU VCAN (11755009_s_at) / Fold change /veh VCAN (11755009_s_at) / RFU RHOB (11743442_s_at) / Fold change /veh RHOB (11743442_s_at) / RFU RGS16 (11720943_a_at) / Fold change /veh RGS16 (11720943_a_at) / RFU RGS16 (11720944_at) / Fold change /veh RGS16 (11720944_at) / RFU, VPS4B / Fold change vs veh, VPS4B / RFU, CREB1 / Fold change vs veh, CREB1 / RFU, DNAJC13 / Fold change vs veh, DNAJC13 / RFU, GNAQ / Fold change vs veh, GNAQ / RFU, CDK5R1 / Fold change vs veh, CDK5R1 / RFU, ZRANB3 / Fold change vs veh, ZRANB3 / RFU, CUL4A / Fold change vs veh, CUL4A / RFU, CCNY / Fold change vs veh, CCNY / RFU, UFL1 / Fold change vs veh, UFL1 / RFU, COG3 / Fold change vs veh, COG3 / RFU, DIAPH2 / Fold change vs veh, DIAPH2 / RFU, SKA2 / Fold change vs veh, SKA2 / RFU, AFF3 / Fold change vs veh, AFF3 / RFU, LMF1 / Fold change vs veh, LMF1 / RFU, IPO11 / Fold change vs veh, IPO11 / RFU, DFFB / Fold change vs veh, DFFB / RFU, FOXP1 / Fold change vs veh, FOXP1 / RFU, CARD8 / Fold change vs veh, CARD8 / RFU, STRN3 / Fold change vs veh, STRN3 / RFU, ADK / Fold change vs veh, ADK / RFU, RASSF2 / Fold change vs veh, RASSF2 / RFU, WIPF1 / Fold change vs veh, WIPF1 / RFU, LARP1B / Fold change vs veh, LARP1B / RFU, RASA1 / Fold change vs veh, RASA1 / RFU, RB1 / Fold change vs veh, RB1 / RFU, PPFIA1 / Fold change vs veh, PPFIA1 / RFU, MAT2A / Fold change vs veh, MAT2A / RFU, CCT5 / Fold change vs veh, CCT5 / RFU, WDR92 / Fold change vs veh, WDR92 / RFU, CUX1 / Fold change vs veh, CUX1 / RFU, TTC7A / Fold change vs veh, TTC7A / RFU, TMEM135 / Fold change vs veh, TMEM135 / RFU, DEPTOR / Fold change vs veh, DEPTOR / RFU, CPM / Fold change vs veh, CPM / RFU, DNAJB6 / Fold change vs veh, DNAJB6 / RFU, CACNA2D3 / Fold change vs veh, CACNA2D3 / RFU, DTX4 / Fold change vs veh, DTX4 / RFU, TFCP2 / Fold change vs veh, TFCP2 / RFU, GMCL1 /// GMCL1P1 / Fold change vs veh, GMCL1 /// GMCL1P1 / RFU, AEBP2 / Fold change vs veh, AEBP2 / RFU, SNHG1 /// SNORD22 /// SNORD25 /// SNORD26 /// SNORD27 /// SNORD28 /// SNORD29 /// SNORD31 / Fold change vs veh, SNHG1 /// SNORD22 /// SNORD25 /// SNORD26 /// SNORD27 /// SNORD28 /// SNORD29 /// SNORD31 / Fold change (Aza/veh), C12orf56 (ProbeSet 11735607_a_at) / Fold change (ACY-1035/veh), C12orf56 (ProbeSet 11735607_a_at) / Fold change (Aza/veh), FGFR1OP (ProbeSet 11751329_s_at) / Fold change (ACY-1035/veh), FGFR1OP (ProbeSet 11751329_s_at) / Fold change (Aza/veh), VPS36 (ProbeSet 11739960_a_at) / Fold change (ACY-1035/veh), VPS36 (ProbeSet 11739960_a_at) / RFU SYPL1 (11715823_x_at) / Fold change /veh SYPL1 (11715823_x_at) / RFU IGFBP7 (11715501_s_at) / Fold change /veh IGFBP7 (11715501_s_at) / RFU REEP3 (11722064_at) / Fold change /veh REEP3 (11722064_at) / RFU IGLL1 (11728026_x_at) / Fold change /veh IGLL1 (11728026_x_at): dose or concentration left out as unconfirmed
# Conditions: ProbeSet 11717702_a_at; LIST D
smiles,measurement,value
Nc1ccc(-c2cccs2)cc1NC(=O)c1ccc2c(c1)cc(C1CC1)n2CCN1CCOCC1 [ACY-1035],"RFU, RB1",245.16 RFU
